Molecular target: Nicotinic acetylcholine receptor alpha3/betaX (Homo sapiens) (UniProt P11230+P17787+P30926+P32297+Q05901)
Experiment: Antagonistic activity against Nicotinic acetylcholine receptor (alpha3-betaX subunit) in IMR 32 cell line using 100 uM of (-)-nicotine as agonist
Type: functional, cell-based

Question: For `CN1CCC[C@H]1COc1cncc(-c2cncnc2)c1`, which Max efficacy is on record?
Answer: 38.9%

Molecular target: Nicotinic acetylcholine receptor alpha3/betaX
Experiment: (§1) Antagonistic activity against neuronal nicotinic acetylcholine receptor (alpha3-betaX subunit) in IMR 32 cell line using 100 uM of (-)-nicotine as agonist
Type: functional, cell-based, Homo sapiens

Question: For `CN1CCC[C@H]1COc1cncc(-c2cncnc2)c1`, which EC50 is on record?
Answer: 32.4 µM

Molecular target: Nicotinic acetylcholine receptor alpha3/betaX
Experiment: as §1
Type: functional, cell-based

Question: `CN1CCC[C@H]1COc1cncc(/C=C/c2ccncc2)c1` was tested. Which IC50 did it give?
Answer: 7.6 µM

Question: `CN1CCC[C@H]1COc1cncc(-c2cc(C(F)(F)F)cc(C(F)(F)F)c2)c1` was tested. Which IC50 did it give?
Answer: 2.35 µM

Question: `CN1CCC[C@H]1COc1cncc(-c2ccc(C(F)(F)F)cc2)c1` was tested. Which IC50 did it give?
Answer: 5.71 µM

Question: With `CN1CCC[C@H]1COc1cncc(/C=C/c2ccccc2)c1` as the compound, how does the IC50 read?
Answer: 4.8 µM

Question: `CN1CCC[C@H]1COc1cncc(-c2cnc3ccccc3c2)c1` was tested. Which IC50 did it give?
Answer: 5.1 µM

Question: For `CN1CCC[C@H]1COc1cncc(-c2ccc(F)c(Cl)c2)c1`, which IC50 is on record?
Answer: 7.3 µM

Question: `CN1CCC[C@H]1COc1cncc(-c2ccc(Cl)cc2)c1` was tested. Which IC50 did it give?
Answer: 1.99 µM

Question: With `COc1ccc(-c2cncc(OC[C@@H]3CCCN3C)c2)cc1` as the compound, how does the IC50 read?
Answer: 6.97 µM

Question: For `CN1CCC[C@H]1COc1cncc(-c2cccs2)c1`, which IC50 is on record?
Answer: 1.7 µM

Question: With `CN1CCC[C@H]1COc1cncc(CCc2ccccc2)c1` as the compound, how does the IC50 read?
Answer: 1.1 µM

Question: `CN1CCC[C@H]1COc1cncc(-c2ccc(F)cc2)c1` was tested. Which IC50 did it give?
Answer: 6.48 µM

Question: `CN1CCC[C@H]1COc1cncc(-c2cc3ccccc3o2)c1` was tested. Which IC50 did it give?
Answer: 2.9 µM

Question: How did the IC50 turn out when `CN1CCC[C@H]1COc1cncc(-c2ccc3ccccc3c2)c1` was run?
Answer: 3.4 µM

Question: How did the IC50 turn out when `CN1CCC[C@H]1COc1cncc(-c2cccc([N+](=O)[O-])c2)c1` was run?
Answer: 2.33 µM

Question: With `CN1CCC[C@H]1COc1cncc(-c2cccnc2)c1` as the compound, how does the IC50 read?
Answer: 24.7 µM

Question: For `CN1CCC[C@H]1COc1cncc(-c2ccccc2C=O)c1`, which IC50 is on record?
Answer: 6.31 µM

Question: Which IC50 does the source give for `CN1CCC[C@H]1COc1cncc(-c2ccco2)c1` here?
Answer: 7.9 µM

Question: With `Cc1ccccc1-c1cncc(OC[C@@H]2CCCN2C)c1` as the compound, how does the IC50 read?
Answer: 1.25 µM

Question: For `CN1CCC[C@H]1COc1cncc(C#Cc2ccccc2)c1`, which IC50 is on record?
Answer: 0.79 µM

Question: `CN1CCC[C@H]1COc1cncc(-c2cc3ccccc3n2C)c1` was tested. Which IC50 did it give?
Answer: 6.1 µM

Question: For `Cc1ccc(-c2cncc(OC[C@@H]3CCCN3C)c2)cc1`, which IC50 is on record?
Answer: 0.8 µM

Question: How did the IC50 turn out when `CN1CCC[C@H]1COc1cncc(-c2ccccc2)c1` was run?
Answer: 5.1 µM

Question: How did the IC50 turn out when `CN1CCC[C@H]1COc1cncc(-c2cccc(N)c2)c1` was run?
Answer: 6.9 µM

Question: For `Cc1ccc(C#Cc2cncc(OC[C@@H]3CCCN3C)c2)cc1`, which IC50 is on record?
Answer: 1.5 µM

Question: How did the IC50 turn out when `CN1CCC[C@H]1COc1cncc(-c2ccc(Cl)cc2Cl)c1` was run?
Answer: 0.89 µM

Question: Which IC50 does the source give for `CN1CCC[C@H]1COc1cncc(-c2cccc3ccccc23)c1` here?
Answer: 0.69 µM

Question: `CN1CCC[C@H]1COc1cncc(CCc2ccncc2)c1` was tested. Which IC50 did it give?
Answer: 6.3 µM

Molecular target: Neuronal acetylcholine receptor; alpha4/beta2 (Rattus norvegicus, UniProt P09483+P12390)
Sequence (P09483 whole entry): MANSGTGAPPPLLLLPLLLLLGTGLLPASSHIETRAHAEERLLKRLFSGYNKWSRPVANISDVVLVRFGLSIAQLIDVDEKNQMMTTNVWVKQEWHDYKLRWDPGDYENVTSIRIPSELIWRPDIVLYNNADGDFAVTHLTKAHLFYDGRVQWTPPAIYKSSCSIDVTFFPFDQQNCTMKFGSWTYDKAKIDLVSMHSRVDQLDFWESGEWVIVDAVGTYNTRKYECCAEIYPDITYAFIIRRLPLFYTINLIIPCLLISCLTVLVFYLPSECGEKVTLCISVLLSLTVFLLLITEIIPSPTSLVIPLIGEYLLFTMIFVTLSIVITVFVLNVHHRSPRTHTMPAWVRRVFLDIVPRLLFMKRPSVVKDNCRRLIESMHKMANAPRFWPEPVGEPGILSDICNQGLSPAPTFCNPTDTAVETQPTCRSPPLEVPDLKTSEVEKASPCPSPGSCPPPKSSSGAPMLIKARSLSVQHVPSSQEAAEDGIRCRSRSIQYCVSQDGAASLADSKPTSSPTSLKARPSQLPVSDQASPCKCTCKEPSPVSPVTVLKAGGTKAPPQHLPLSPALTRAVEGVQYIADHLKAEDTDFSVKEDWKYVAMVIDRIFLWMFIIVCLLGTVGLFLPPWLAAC
Sequence (P12390 whole entry): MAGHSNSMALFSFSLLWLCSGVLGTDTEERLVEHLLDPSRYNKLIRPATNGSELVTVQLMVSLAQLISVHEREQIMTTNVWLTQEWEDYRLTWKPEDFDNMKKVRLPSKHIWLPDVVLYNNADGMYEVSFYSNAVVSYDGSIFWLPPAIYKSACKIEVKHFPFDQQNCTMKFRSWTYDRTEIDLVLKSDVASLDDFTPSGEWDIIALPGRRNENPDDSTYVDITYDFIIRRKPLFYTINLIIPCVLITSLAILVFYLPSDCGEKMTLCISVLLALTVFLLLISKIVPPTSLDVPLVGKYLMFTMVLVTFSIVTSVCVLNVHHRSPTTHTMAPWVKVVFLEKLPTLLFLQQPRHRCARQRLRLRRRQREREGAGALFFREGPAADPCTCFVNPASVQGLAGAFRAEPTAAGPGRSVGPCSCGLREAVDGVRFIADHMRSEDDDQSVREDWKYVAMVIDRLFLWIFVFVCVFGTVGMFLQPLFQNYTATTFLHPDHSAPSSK
Experiment: In vitro ability to displace [3H](-)-cytisine binding to whole rat brain membranes at Nicotinic acetylcholine receptor alpha4-beta2
Set-up: species or system Membrane

Question: For `CN1CCC[C@H]1COc1cncc(/C=C/c2ccncc2)c1`, which Ki is on record?
Answer: 0.00012 µM

Question: Which Ki does the source give for `CN1CCC[C@H]1COc1cncc(-c2cncnc2)c1` here?
Answer: 0.00037 µM

Question: With `CN1CCC[C@H]1COc1cncc(-c2cc3ccccc3o2)c1` as the compound, how does the Ki read?
Answer: 0.00015 µM

Question: For `Cc1ccc(C#Cc2cncc(OC[C@@H]3CCCN3C)c2)cc1`, which Ki is on record?
Answer: 0.00031 µM

Reference: ChEMBL document CHEMBL1134749, “Synthesis and structure-activity relationships of 5-substituted pyridine analogues of 3” (Bioorg Med Chem Lett, 2001)
